Patent US9493396B2, “Substituted naphthalene compounds as calcium sensing receptor modulators” (LUPIN ATLANTIS HOLDINGS SA, priority 2013, dated 2016)
Structures can show the parent of a compound that is named as a salt.

Molecular target: T1, Calcium sensing receptor (hCaSR) (Homo sapiens, UniProt P41180)
T1 construct: expressed in transfected cells; host or cells: HEK293 (stably transfected)
T1 sequence (P41180 20-1078): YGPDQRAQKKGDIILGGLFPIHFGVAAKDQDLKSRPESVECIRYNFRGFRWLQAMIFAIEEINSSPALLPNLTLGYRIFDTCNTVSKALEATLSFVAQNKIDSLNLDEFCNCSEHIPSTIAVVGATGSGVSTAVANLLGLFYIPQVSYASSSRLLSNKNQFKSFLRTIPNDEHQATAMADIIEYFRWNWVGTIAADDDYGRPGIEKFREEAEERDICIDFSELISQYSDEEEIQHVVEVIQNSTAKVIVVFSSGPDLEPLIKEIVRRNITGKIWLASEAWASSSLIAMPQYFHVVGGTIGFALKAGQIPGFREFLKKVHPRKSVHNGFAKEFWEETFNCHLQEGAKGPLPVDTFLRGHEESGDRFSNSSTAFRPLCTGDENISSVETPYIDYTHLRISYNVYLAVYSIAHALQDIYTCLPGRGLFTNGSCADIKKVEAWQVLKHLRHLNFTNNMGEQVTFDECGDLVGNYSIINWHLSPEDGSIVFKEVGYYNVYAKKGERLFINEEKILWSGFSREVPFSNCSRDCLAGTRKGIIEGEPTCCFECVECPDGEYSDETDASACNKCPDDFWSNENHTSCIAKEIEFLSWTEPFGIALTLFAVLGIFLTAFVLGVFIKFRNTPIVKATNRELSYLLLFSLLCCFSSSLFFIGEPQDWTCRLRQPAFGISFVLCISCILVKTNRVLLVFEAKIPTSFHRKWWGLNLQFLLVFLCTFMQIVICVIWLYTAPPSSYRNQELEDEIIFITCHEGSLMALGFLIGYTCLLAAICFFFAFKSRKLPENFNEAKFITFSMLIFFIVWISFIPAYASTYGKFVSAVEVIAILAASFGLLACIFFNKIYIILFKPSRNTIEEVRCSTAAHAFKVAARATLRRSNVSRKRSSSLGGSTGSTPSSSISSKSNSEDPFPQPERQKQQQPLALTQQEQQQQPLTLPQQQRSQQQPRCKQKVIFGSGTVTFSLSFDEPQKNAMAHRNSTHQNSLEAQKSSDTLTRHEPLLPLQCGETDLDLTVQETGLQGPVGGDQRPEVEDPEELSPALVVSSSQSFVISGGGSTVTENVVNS
Assay: In-vitro assay of calcimimetics through modulation of calcium sensing receptor (intracellular calcium increase, FLIPR)
Format: cell-based
Conditions: stably transfected HEK293 cells expressing hCaSR; Fluo4NW dye; 0.3 mM CaCl2; 8-point assay; read-out: EC50 in range
Protocol: In-Vitro Assay Method of Calcimimetics Through Modulation of Calcium Sensing Receptor (CaSR): The ability of the compounds to modulate Calcium sensing receptor is determined by measuring an increase in intracellular calcium [Ca^2+]i. Stably transfected HEK293 cells expressing hCaSR_pTriEx-3 hygro vector are developed. Cells are grown overnight on a 96-well plate to 80% confluency in Ham's F12 containing 20% FBS at 37° C., 5% CO2. Subsequently, cells are washed extensively with 20 mM HEPES buffer containing 126 mM […], 1 mM MgCl2 and 4 mM KCl to remove serum components that might interfere with the assay. Cells are loaded with calcium sensing Fluo4NW dye in HEPES base buffer containing 0.1% BSA and 1 mg/ml glucose for 30 minutes to measure changes in intracellular calcium. The activities of the compounds are measured in FLIPR using 0.3 mM CaCl2 in 20 mM HEPES base buffer. The effectiveness of the compound to modulate receptor activity is determined by calculating the EC50 responses for that compound in an 8-point assay and plotted using GraphPad Prism 5.

## COc1cc([C@@H](C)NCc2cc(-c3ccc(F)c(C(=O)O)c3)c3ccccc3c2)ccc1F [Example 96, (R)-2-Fluoro-5-(3-(((1-(4-fluoro-3-methoxyphenyl)ethyl)amino)methyl)naphthalen-1-yl)benzoic acid hydrochloride]
  EC50: 50 to 400 nM

## COc1cccc([C@@H](C)NCc2cc(-c3ccc(F)c(C(=O)O)c3)c3ccccc3c2)c1 [Example 97, (R)-2-Fluoro-5-(3-(((1-(3-methoxyphenyl)ethyl)amino)methyl)naphthalen-1-yl)benzoic acid hydrochloride]
  EC50: < 20 nM

## CCC(N[C@H](C)c1cccc(Cl)c1)c1cc(-c2ccc(F)c(CCC(=O)O)c2)c2ccccc2c1 (stereo partly drawn) [Example 152, 3-(5-(3-(1-(((R)-1-(3-Chlorophenyl)ethyl)amino)propyl)naphthalen-1-yl)-2-fluorophenyl)propanoic acid hydrochloride]
  EC50: 50 to 400 nM

## C[C@@H](NCc1cc(-c2cccc(C(F)(F)F)c2)c2ccccc2c1)c1cccc2ccccc12 [Example 3, (R)-1-(Naphthalen-1-yl)-N-((4-(3-(trifluoromethyl)phenyl)naphthalen-2-yl)methyl)ethanamine hydrochloride]
  EC50: < 20 nM

## COc1cccc([C@@H](C)NC(C)c2cc(-c3ccc(C(=O)O)c(F)c3)c3ccccc3c2)c1 (stereo partly drawn) [Example 132, 2-Fluoro-4-(3-(1-(((R)-1-(3-methoxyphenyl)ethyl)amino)ethyl)naphthalen-1-yl)benzoic acid hydrochloride]
  EC50: 50 to 400 nM

## COC(=O)c1cc(-c2cc(CN[C@H](C)c3cccc(OC)c3)cc3ccccc23)ccc1C [Example 155, (R)-Methyl 5-(3-(((1-(3-methoxyphenyl)ethyl)amino)methyl)naphthalen-1-yl)-2-methylbenzoate hydrochloride]
  EC50: < 20 nM

## CCOc1cccc([C@@H](C)NC(C)c2cc(-c3ccc(C)c(C(=O)O)c3)c3ccccc3c2)c1 (stereo partly drawn) [Example 143, 5-(3-(1-(((R)-1-(3-Ethoxyphenyl)ethyl)amino)ethyl)naphthalen-1-yl)-2-methylbenzoic acid hydrochloride]
  EC50: 20 to 50 nM

## CC(N[C@H](C)c1cccc(Cl)c1)c1cc(-c2ccc(C(F)(F)F)cc2)c2ccccc2c1 (stereo partly drawn) [Example 10, (1R)-1-(3-Chlorophenyl)-N-(1-(4-(4-(trifluoromethyl)phenyl)naphthalen-2-yl)ethyl)ethanamine hydrochloride]
  EC50: < 20 nM

## CC(N[C@H](C)c1cccc(Cl)c1)c1cc(-c2ccc(OC(F)(F)F)cc2)c2ccccc2c1 (stereo partly drawn) [Example 20, (1R)-1-(3-Chlorophenyl)-N-(1-(4-(4-(trifluoromethoxy)phenyl)naphthalen-2-yl)ethyl)ethanamine hydrochloride]
  EC50: < 20 nM

## COc1cccc([C@@H](C)NC(C)c2cc(-c3ccc(C(=O)O)cc3)c3ccccc3c2)c1 (stereo partly drawn) [Example 119, 4-(3-(1-(((R)-1-(3-Methoxyphenyl)ethyl)amino)ethyl)naphthalen-1-yl)benzoic acid hydrochloride]
  EC50: 50 to 400 nM

## COc1cccc([C@@H](C)NC(C)c2cc(-c3ccc(OC)c(CCC(=O)O)c3)c3ccccc3c2)c1 (stereo partly drawn) [Example 131, 3-(2-Methoxy-5-(3-(1-(((R)-1-(3-methoxyphenyl)ethyl)amino)ethyl)naphthalen-1-yl)phenyl) propanoic acid hydrochloride]
  EC50: 20 to 50 nM

## CC(N[C@H](C)c1cccc(Cl)c1)c1cc(-c2ccc(F)c(CCC(=O)O)c2)c2ccccc2c1 (stereo partly drawn) [Example 144, 3-(5-(3-(1-(((R)-1-(3-Chlorophenyl)ethyl)amino)ethyl)naphthalen-1-yl)-2-fluorophenyl)propanoic acid hydrochloride]
  EC50: 20 to 50 nM

## COC(=O)c1cc(-c2cc(CN[C@H](C)c3cccc(OC)c3)cc3ccccc23)ccc1F [Example 45, (R)-methyl 2-fluoro-5-(3-(((1-(3-methoxyphenyl)ethyl)amino)methyl)naphthalen-1-yl)benzoate hydrochloride]
  EC50: < 20 nM

## CC(N[C@H](C)c1cccc(Cl)c1)c1cc(-c2ccc(C3(F)COC3)cc2)c2ccccc2c1 (mixture of isomers) [Example 23, (1R)-1-(3-chlorophenyl)-N-(1-(4-(4-(3-fluorooxetan-3-yl)phenyl)naphthalen-2-yl)ethyl)ethanamine hydrochloride]
  EC50: < 20 nM

## COc1cccc([C@@H](C)NC(C)c2cc(-c3ccc(F)c(CCC(=O)O)c3)c3ccccc3c2)c1 (stereo partly drawn) [Example 122, 3-(2-Fluoro-5-(3-(1-(((R)-1-(3-methoxyphenyl)ethyl)amino)ethyl)naphthalen-1-yl)phenyl)propanoic acid hydrochloride]
  EC50: < 20 nM

## CCOc1cccc([C@@H](C)NCc2cc(-c3ccc(F)c(C(=O)O)c3)c3ccccc3c2)c1 [Example 98, hydrochloride]
  EC50: < 20 nM

## COc1cc([C@@H](C)NCc2cc(-c3ccc(C(=O)O)cc3)c3ccccc3c2)ccc1F [Example 107, (R)-4-(3-(((1-(4-Fluoro-3-methoxyphenyl)ethyl)amino)methyl)naphthalen-1-yl)benzoic acid hydrochloride]
  EC50: 20 to 50 nM

## CCOc1cccc([C@@H](C)NCc2cc(-c3ccc(C)c(C(=O)O)c3)c3ccccc3c2)c1 [Example 91, hydrochloride]
  EC50: < 20 nM

## COc1cccc([C@@H](C)NCc2cc(-c3cccc(C(C)(C)C(=O)O)c3)c3ccccc3c2)c1 [Example 112, (R)-2-(3-(3-(((1-(3-Methoxyphenyl)ethyl)amino)methyl)naphthalen-1-yl)phenyl)-2-methylpropanoic acid hydrochloride]
  EC50: 50 to 400 nM

## COc1cc(C(=O)O)cc(-c2cc(C(C)N[C@H](C)c3cccc(OC)c3)cc3ccccc23)c1 (stereo partly drawn) [Example 150, 3-Methoxy-5-(3-(1-(((R)-1-(3-methoxyphenyl)ethyl)amino)ethyl)naphthalen-1-yl)benzoic acid hydrochloride]
  EC50: 50 to 400 nM

## CCOc1cccc([C@@H](C)NC(C)c2cc(-c3ccc(C)c(CCC(=O)OC(C)C)c3)c3ccccc3c2)c1 (stereo partly drawn) [Example 154, Isopropyl 3-(5-(3-(1-(((R)-1-(3-ethoxyphenyl)ethyl)amino)ethyl)naphthalen-1-yl)-2-methylphenyl) propanoate hydrochloride]
  EC50: 50 to 400 nM

## COc1cccc([C@@H](C)NC(C)c2cc(-c3ccc(C(F)(F)F)c(C(=O)O)c3)c3ccccc3c2)c1 (stereo partly drawn) [Example 128, 5-(3-(1-(((R)-1-(3-Methoxyphenyl)ethyl)amino)ethyl)naphthalen-1-yl)-2-(trifluoromethyl) benzoic acid hydrochloride]
  EC50: 50 to 400 nM

## COc1cccc([C@@H](C)NC(C)c2cc(-c3cc(F)cc(CCC(=O)O)c3)c3ccccc3c2)c1 (stereo partly drawn) [Example 134, 3-(3-Fluoro-5-(3-(1-(((R)-1-(3-methoxyphenyl)ethyl)amino)ethyl)naphthalen-1-yl)phenyl)propanoic acid hydrochloride]
  EC50: < 20 nM

## COc1cc([C@@H](C)NCc2cc(-c3ccc(C(F)(F)F)cc3)c3ccccc3c2)ccc1F [Example 2, (R)-1-(4-Fluoro-3-methoxyphenyl)-N-((4-(4-(trifluoromethyl)phenyl)naphthalen-2-yl)methyl)ethanamine hydrochloride]
  EC50: 20 to 50 nM

## CCOc1cccc([C@@H](C)NC(C)c2cc(-c3ccc(F)c(CCC(=O)O)c3)c3ccccc3c2)c1 (stereo partly drawn) [Example 142, 3-(5-(3-(1-(((R)-1-(3-Ethoxyphenyl)ethyl)amino)ethyl)naphthalen-1-yl)-2-fluorophenyl) propanoic acid hydrochloride]
  EC50: < 20 nM

## COc1cccc([C@@H](C)NC(C)c2cc(-c3ccc(F)cc3)c3ccccc3c2)c1 (mixture of isomers) [Example 15, 1-(4-(4-Fluorophenyl)naphthalen-2-yl)-N-((R)-1-(3-methoxyphenyl)ethyl)ethanamine hydrochloride]
  EC50: < 20 nM
